Entries after “also recorded” stand apart in the source; their conditions may differ.
How the values were obtained:
[1] = system: BirA*-FLAG-GATAD1 variants in Flp-In-293 cells; test: BioID proximity labelling of full-length GATAD1 variants (SILAC); format: cell-based, human; conditions: GATAD1 WT vs S102P, significant proteins only; for Log2_Ratio.H.L.normalized.WT_S102P_forward: forward experiment (label swap performed, sign inverted against the H/L ratio); for Log2_Ratio.H.L.normalized.WT_S102P_forward / Log2_Ratio.H.L.normalized.WT_S102P_reverse: log2 of normalized H/L ratio; for Ratio.H.L.normalized.WT_S102P_forward: forward experiment; for Log2_Ratio.H.L.normalized.WT_S102P_reverse / Ratio.H.L.normalized.WT_S102P_reverse: reverse experiment
Source text: The GATAD1 gene variants were ordered in a pTwist ENTR Kozak vector from Twist Bioscience. The genes were then transferred to a pDEST_pcDNA5_BirA_FLAG_Nterm vector[97] using the Gateway Clonase II system (Thermo Fisher Scientific). The resulting vectors, pEXPR_GATAD1-WT_N-term_BirA_FLAG, pEXPR_GATAD1-S102P_N-term_BirA_FLAG, pEXPR_GATAD1-S102D_N-term_BirA_FLAG, and pEXPR_GATAD1-S102A_N-term_BirA_FLAG, were used to generate tetracycline-inducible stable Flp-In^TM-293 T-REx cells. A 6-well plate was co-transfected with 0.5 µg of the pEXPR plasmid and 1 µg of the pOG44 Flp-recombinase expression vector (Thermo Fisher Scientific) using 4.5 µg of PEI (Polysciences) as a transfection reagent. The following day, the cells were trypsinized and transferred to a 10 cm dish containing DMEM supplemented with 10% FCS and 200 µg/ml hygromycin B (Invivogen) for selection. The cells were cultured for approximately 18 days with media exchange every 3 days until visible colonies were observed. After around 18 days, the colonies were trypsinized and transferred to another 10 cm dish for further characterization and experiments.
Stable Flp-In^TM-293 cell lines expressing GATAD1 variants were cultured using SILAC light (Lys0, Arg0) and SILAC heavy (Lys8, Arg10) media, as explained in the cell culture section. After full labeling, cells were split into 15 cm dishes and were treated with 1 μg/mL tetracycline for 24 h to induce the expression of GATAD1. After the induction period, cells were incubated with 50 μM biotin overnight for proximity biotinylation. As a control, wild-type GATAD1 cells, without biotin or tetracycline addition, were used. Samples were multiplexed, as shown in Supplementary Fig. 41A with both forward and reverse label swap (n = 2). Cells were then lysed in lysis buffer (50 mM Tris-HCl pH 7.5, 150 mM NaCl, 1% Triton X-100, 1 mM EDTA, 1 mM EGTA, 0.1% SDS) with freshly added protease inhibitors and 1% sodium deoxycholate. To digest the excess DNA, 1 μl of Benzonase was added, and the samples were incubated for 20 min at 37 °C. Biotinylated proteins were enriched for 3 h at 4 °C using streptavidin-sepharose beads (GE Cat# 17-5113-01). Beads were pre-washed twice with 0.01% BSA and twice with lysis buffer. After enrichment, the beads were washed one time with lysis buffer, two times with washing buffer (50 mM HEPES-KOH pH 8.0, 100 mM KCl, 10% glycerol, 2 mM EDTA, 0.1% NP-40), and six times with 50 mM ammonium bicarbonate. Beads were resuspended in ammonium bicarbonate, and an on-bead protein digest with 1 μg of trypsin followed overnight. The next day, the digested proteins were transferred to a fresh tube and were incubated with 10 mM DTT for 30 min at 37 °C and with 55 mM iodoacetamide for 20 min at 37 °C in the dark. Samples were desalted with StageTips.
Peptides were separated using reversed-phase liquid chromatography (EASY nLC II 1200, Thermo Fisher Scientific) with self-made C18 microcolumns (20 cm long) packed with ReproSil-Pur C18-AQ 1.9 μm resin (Dr. Maisch, cat# r119.aq.0001). The chromatography system was coupled online to the electrospray ion source (Proxeon) of an Orbitrap Exploris 480 mass spectrometer (Thermo Fisher Scientific). The mobile phase consisted of buffer A (0.1% formic acid and 5% acetonitrile) and buffer B (0.1% formic acid and 80% acetonitrile). Peptides were eluted using a gradient with increasing concentrations of buffer B over 110 minutes, at a flow rate of 250 nl/min. Mass spectrometry data was acquired in data-dependent mode with settings for one full scan (resolution: 60,000; m/z range: 350–1600; normalized AGC target: 300%; maximum injection time: 10 ms), followed by top 20 MS/MS scans using higher-energy collisional dissociation (resolution: 15,000; m/z range: 200–2000; normalized AGC target: 100%; maximum injection time: 120 ms; isolation width: 1.3 m/z; normalized collision energy: 28%).
Raw files were analyzed with MaxQuant, version 2.0.3.0. […]

14-3-3 epsilon (YWHAE) = target: T1, 14-3-3 epsilon (YWHAE) (Homo sapiens, UniProt P62258); test: Isothermal titration calorimetry (ITC) of GATAD1 peptides with 14-3-3ε; format: binding; conditions: 18 °C, 400 µM peptide in syringe, 25 µM 14-3-3ε in chamber, 20 mM HEPES pH 7.0, 150 mM NaCl, 2 mM DTT
T1 construct: residues 1 and 236-255 are disordered and therefore not visible in the electron density; GST (N, cleaved yes); made in house; host or cells: Escherichia coli C41 (DE3)
T1 sequence (P62258 1-255): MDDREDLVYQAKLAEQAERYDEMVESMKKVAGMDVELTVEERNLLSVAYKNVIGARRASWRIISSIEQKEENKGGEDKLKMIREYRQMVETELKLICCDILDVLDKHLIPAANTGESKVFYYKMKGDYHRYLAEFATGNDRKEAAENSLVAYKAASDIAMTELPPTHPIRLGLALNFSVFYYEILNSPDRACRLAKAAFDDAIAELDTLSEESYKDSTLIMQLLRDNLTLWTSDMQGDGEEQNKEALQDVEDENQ
Protocol: The 14-3-3ε (YWHAE) cDNA was purchased from Twist Bioscience in the pTwist Chlor High Copy vector and cloned into the pGEX6P1 plasmid (GE Healthcare) for recombinant expression as a GST-fusion protein followed by a Prescission protease cleavage site. The plasmid was freshly transformed into Escherichia coli C41 (DE3) cells. Cultures were grown in terrific broth supplemented with ampicillin (100 μg/ml) at 37 °C and 80 rpm until an optical density at 600 nm of 0.7 was reached. […] Cells were harvested by centrifugation at 4000 g and frozen at −20 °C.
Following resuspension in lysis buffer (50 mM HEPES/NaOH pH 7.5, 500 mM NaCl and 3 mM Dithiothreitol (DTT)) supplemented with 1 mg deoxyribonuclease I (DNaseI, Roche) and protease inhibitor 4-(2-Aminoethyl) benzenesulfonyl fluoride hydrochloride S7(AEBSF), cells were disrupted using a microfluidizer (Microfluidics). The cell extract was centrifuged at 55,000 g for 45 min at 4 °C to remove insoluble parts. The cleared supernatant was applied onto a prepacked Glutathione Sepharose 4B column (Cytiva) equilibrated in the lysis buffer. The column was extensively washed with lysis buffer. To cleave off the GST tag, 1 mg PreScission protease was diluted in 5 ml OCC buffer (50 mM HEPES/NaOH pH 7.5, 150 mM NaCl, and 3 mM DTT), applied to the column material, and incubated overnight at 4 °C. Cleaved 14-3-3ε protein was eluted from the column using OCC buffer, concentrated and loaded onto an 16/60 S200 column (Cytiva) equilibrated in SEC buffer (20 mM HEPES/NaOH pH 7.5, 150 mM NaCl and 2 mM DTT). Pure and homogenous 14-3-3ε was concentrated to 13 mg/ml, flash-frozen in liquid nitrogen, and stored at −80 °C until further use.
GATAD1 peptides used in these experiments were obtained from JPT peptide technologies with an N-terminus in amine and a C-terminus in amide form with 95% purity. ITC experiments were performed using a PEAQ-ITC microcalorimeter (Malvern). All titrations were performed at 18 °C with 400 µM peptide in the syringe and 25 µM 14-3-3ε in the reaction chamber. The protein and the titration components were dissolved in a buffer containing 20 mM HEPES pH 7.0, 150 mM NaCl, and 2 mM DTT. Malvern software was used for data visualization and fitting. The raw ITC results can be found in Supplementary Fig. 42.

Interaction with 14-3-3ε by ITC (in words) (14-3-3 epsilon (YWHAE))	Substance	Log2_Ratio.H.L.normalized.WT_S102P_forward [1]	Ratio.H.L.normalized.WT_S102P_forward [1]	Log2_Ratio.H.L.normalized.WT_S102P_reverse [1]	Ratio.H.L.normalized.WT_S102P_reverse [1]	Interaction with 14-3-3ε by ITC (in words) (14-3-3 epsilon (YWHAE); listed as non-phosphorylated wild-type peptide)
–	NCOR1	1.327	0.3987	1.25	2.3792	–
–	BOD1L1	1.279	0.4121	1.335	2.5226	–
–	NPM1	1.325	0.3991	1.034	2.0483	–
–	BCLAF1	1.402	0.3784	1.045	2.064	–
do not interact	LRNTKYKEAPAAEKK [S102E, phosphomimetic S102E mutant GATAD1 peptide]	–	–	–	–	–
–	RBBP6	1.156	0.4486	1.0059	2.0082	–
–	PSPGRQNSKAPKLTL [NCOA6, wild-type non-phosphorylated 15-mer]	1.334	0.3966	1.3003	2.4628	–
–	MED1	1.28	0.4118	1.018	2.0257	–
–	PCF11	1.509	0.3515	1.2027	2.3017	–
–	ZNF318	1.385	0.3829	1.241	2.3636	–
–	TPR	1.211	0.4319	1.117	2.169	–
–	PSME3	1.443	0.3677	1.216	2.3229	–
do not interact	LRNTKYKSAPAAEKK [GATAD1, wild-type non-phosphorylated GATAD1 15-mer; ITC form with C-terminus in amide form]	–	–	–	–	Neither the non-phosphorylated wild-type peptide nor the peptide with the disease-linked S102P mutation showed detectable binding
–	HDGFRP2	1.523	0.348	1.484	2.7966	–
–	ZC3H4	1.304	0.405	1.071	2.1009	–
–	MGA	1.435	0.3699	1.064	2.0912	–

Substance	Interaction with 14-3-3ε by ITC (in words) (14-3-3 epsilon (YWHAE))	Log2_Ratio.H.L.normalized.WT_S102P_forward [1]	Ratio.H.L.normalized.WT_S102P_forward [1]	Log2_Ratio.H.L.normalized.WT_S102P_reverse [1]	Ratio.H.L.normalized.WT_S102P_reverse [1]	Interaction with 14-3-3ε by ITC (in words) (14-3-3 epsilon (YWHAE); listed as non-phosphorylated wild-type peptide)
LRNTKYKPAPAAEKK [GATAD1_Ser102Pro, GATAD1 15-mer with the disease-linked S102P mutation]	Neither the non-phosphorylated wild-type peptide nor the peptide with the disease-linked S102P mutation showed detectable binding; also recorded: do not interact	–	–	–	–	–
